# Source: patent publication US7071168B2, “Anti-cancer compounds and methods related thereto” (The Regents of the University of Colorado, priority 1998, dated 2006)
# Columns and labels:
# SCLC strain SHP-77 = assay: Colorimetric tetrazolium (MTT) assay for cell survival, SCLC strain SHP-77; format: cell-based, human
# Summary of the method: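 MTT assay: cells seeded overnight, treated in triplicate across a concentration range for 4 days at 37 °C, 5% CO2. On day 5, MTT was added for 4 h; formazan was dissolved in acidified isopropanol and absorbance read.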
# [1] = system: bradykinin response of isolated guinea pig ileum; assay: Anti-bradykinin activity on isolated guinea pig ileum; conditions: higher numbers indicate higher potency
# Summary of the method: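 Bradykinin concentration-effect curves were run in the absence and presence of compound. Tissue: 25 mm terminal ileum from male Hartley guinea pigs fasted overnight, held at 1 g tension in O2/CO2-bubbled Krebs' solution after 1 h equilibration.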
# [2] = biological target: T1, cloned human bradykinin B2 receptors (Homo sapiens, UniProt P30411); assay: Anti-bradykinin activity on cloned human B2 receptors (CHO cells, Cytosensor microphysiometer); format: cell-based; conditions: higher numbers indicate higher potency
# T1 sequence (P30411 1-391): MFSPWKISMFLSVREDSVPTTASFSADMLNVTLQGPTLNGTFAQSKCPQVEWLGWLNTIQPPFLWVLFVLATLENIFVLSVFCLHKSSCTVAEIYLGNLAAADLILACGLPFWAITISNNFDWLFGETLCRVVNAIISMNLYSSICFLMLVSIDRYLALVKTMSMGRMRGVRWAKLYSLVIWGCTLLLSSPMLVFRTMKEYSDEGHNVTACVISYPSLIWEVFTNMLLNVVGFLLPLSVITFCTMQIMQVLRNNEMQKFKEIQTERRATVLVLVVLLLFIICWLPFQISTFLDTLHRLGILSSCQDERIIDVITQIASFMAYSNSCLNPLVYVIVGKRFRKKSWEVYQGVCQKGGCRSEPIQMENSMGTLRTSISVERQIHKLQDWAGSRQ
# Experimental: In general, Anti-bradykinin activity was determined by the classical guinea pig ileum assay and on Chinese hamster ovary (CHO) cells expressing cloned human bradykinin B2 receptors. Anti-tumor activity was determined on cultured human cancer cell lines using the standard tetrazolium (MTT) assay.
# Chinese hamster ovary cells containing cloned and expressed human bradykinin B2 receptors were grown in cell cups of the Cytosensor microphysiometer in Ham's F-12 medium supplemented with sodium pyruvate and 10% FBS (Gibco 11765-054). For assay the cells were transferred to Ham's F-12 without bicarbonate or serum (Gibco 21700-075) and placed in the Cytosensor. Concentration-response curves were constructed to bradykinin in the presence or absence of new compounds.
# [3] = isolated guinea pig ileum, pD2 of bradykinin is 7.4
# [4] = cloned human B2 receptors, pD2 for bradykinin is 11
Compound,MTT: ED50 for killing of SCLC strain SHP-77 in vitro (SCLC strain SHP-77; SCLC strain SHP-77 in vitro),"GPI: pA2 for bradykinin antagonist activity on isolated guinea pig ileum [1, 3]","HUMAN: pA2 for bradykinin antagonist potency on cloned human B2 receptors [2, 4]","MTT: ED50 for killing of SCLC strain SHP-77 in vitro (SCLC strain SHP-77; Table 1, SHP-77, MTT, 4 days)",GPI: pA2 for bradykinin antagonist activity on isolated guinea pig ileum ([1]; Table 1),HUMAN: pA2 for bradykinin antagonist potency on cloned human B2 receptors ([2]; Table 1)
CC1(C)CC(NC(=O)[C@H](Cc2ccc3ccccc3c2)NC(=NC2CCCCC2)NC2CCCCC2)CC(C)(C)N1 [M222],15 µM,6.8,Inact,–,–,–
CC1(C)CC(NC(=O)C(NC(=O)C=Cc2ccc(NC(=O)CCCCCCCCCCC(=O)Nc3ccc(C=CC(=O)NC(C(=O)NC4CC(C)(C)NC(C)(C)C4)C4Cc5ccccc5C4)cc3)cc2)C2Cc3ccccc3C2)CC(C)(C)N1 (stereo not shown) [M294],1.8 µM,Inact,10.3,–,–,–
CC1(C)CC(NC(=O)[C@H](Cc2ccc3ccccc3c2)NC(=O)C=Cc2ccc(NC(=O)CCCCCCCCCCC(=O)Nc3ccc(C=CC(=O)N[C@@H](Cc4ccc5ccccc5c4)C(=O)NC4CC(C)(C)NC(C)(C)C4)cc3)cc2)CC(C)(C)N1 [M310],1.2 µM,5.1,Inact,–,–,–
O=C(C=Cc1cccnc1)NC(Cc1ccc2ccccc2c1)C(=O)NC1CCCCC1 (stereo not shown) [M408],22 µM,4.6,11.5,–,–,–
CC1(C)CC(NC(=O)C(Cc2csc3ccccc23)NC(=O)C=Cc2c(F)c(F)c(F)c(F)c2F)CC(C)(C)N1 (stereo not shown) [M418],3.8 µM,7.0,10.3,–,–,–
CC1(C)CC(NC(=O)[C@H](Cc2csc3ccccc23)NC(=O)CCCCCCCCCCC(=O)N[C@@H](Cc2csc3ccccc23)C(=O)NC2CC(C)(C)NC(C)(C)C2)CC(C)(C)N1 [M430],18 µM,5.3,11.3,–,–,–
CC1(C)CC(NC(=O)C(Cc2cccnc2)NC(=O)C=Cc2c(F)c(F)c(F)c(F)c2F)CC(C)(C)N1 (stereo not shown) [M438],26 µM,4.8,10,–,–,–
Cc1ccc(CSCC(NC(=O)C=Cc2c(F)c(F)c(F)c(F)c2F)C(=O)NC2CC(C)(C)NC(C)(C)C2)cc1 (stereo not shown) [M456],4.7 µM,5.3,Inact,–,–,–
CN1CCN(NC(=O)C(Cc2ccc3ccccc3c2)NC(=O)C=Cc2c(F)c(F)c(F)c(F)c2F)CC1 (stereo not shown) [M470],11 µM,5.2,Inact,–,–,–
CN1CCN(NC(=O)C(Cc2ccc3ccccc3c2)NC(=O)C=Cc2ccc(N(C)C)cc2)CC1 (stereo not shown) [M472],25 µM,5.3,Inact,–,–,–
O=C(C=Cc1cccnc1)NC(Cc1ccc2ccccc2c1)C(=O)Nc1cccc(CO)c1 (stereo not shown) [M474],35 µM,–,Inact,–,–,–
CC1(C)CC(NC(=O)C(Cc2csc3ccccc23)NC(=O)C=Cc2cccs2)CC(C)(C)N1 (stereo not shown) [M476],15 µM,4.6,Inact,–,–,–
CN(C)c1ccc(C=CC(=O)NC(Cc2ccc3ccccc3c2)C(=O)N2CCSCC2)cc1 (stereo not shown) [M478],30 µM,5.1,Inact,–,–,–
CN1CCN(NC(=O)C(Cc2ccc3ccccc3c2)NC(=O)c2cccc(NC(=O)C=Cc3c(F)c(F)c(F)c(F)c3F)c2)CC1 (stereo not shown) [M492],45 µM,5.1,Inact,–,–,–
CN(C)CCCNC(=O)C(Cc1ccc2ccccc2c1)NC(=O)C=Cc1c(F)c(F)c(F)c(F)c1F (stereo not shown) [M526],10 µM,5.4,Inact,–,–,–
CN(C)c1ccc(CNC(=O)C(Cc2ccc3ccccc3c2)NC(=O)C=Cc2c(F)c(F)c(F)c(F)c2F)cc1 (stereo not shown) [M536],4 µM,–,Inact,–,–,–
CN(C)c1cccc2c(S(=O)(=O)NC(Cc3ccc(OCc4ccccc4)cc3)C(=O)NC3CC(C)(C)NC(C)(C)C3)cccc12 (stereo not shown) [M574],4.5 µM,–,Inact,–,–,–
CN(C)c1ccc(C=CC(=O)NC(Cc2ccc(OCc3c(Cl)cccc3Cl)cc2)C(=O)NC2CC(C)(C)NC(C)(C)C2)cc1 (stereo not shown) [M582],3 µM,5.4,9.5,–,–,–
COC(=O)CCCCCCCCC(=O)Nc1ccc(C=CC(=O)NC(C(=O)NC2CC(C)(C)NC(C)(C)C2)C2Cc3ccccc3C2)cc1 (stereo not shown) [M586-A],15 µM,5.3,12,–,–,–
CC1(C)CC(NC(=O)C(NC(=O)C=Cc2ccc(NC(=O)CCCCCCCCC(=O)O)cc2)C2Cc3ccccc3C2)CC(C)(C)N1 (stereo not shown) [M586-B],40 µM,–,12.3,–,–,–
CN(C(=O)C=Cc1c(F)c(F)c(F)c(F)c1F)C(Cc1ccc(OCc2c(Cl)cccc2Cl)cc1)C(=O)NC1CC(C)(C)NC(C)(C)C1 (stereo not shown) [M594],3.7 µM,5.0,8,–,–,–
CC1(C)CC(NC(=O)C(Cc2ccc(OCc3c(Cl)cccc3Cl)cc2)NC(=O)C(C#N)=Cc2ccc(O)cc2)CC(C)(C)N1 (stereo not shown) [M602],12 µM,–,10.8,–,–,–
O=C(C=Cc1ccc(NC(=O)CCCCCCCCCCC(=O)Nc2ccc(C=CC(=O)NC(Cc3ccc4ccccc4c3)C(=O)NC3CCNCC3)cc2)cc1)NC(Cc1ccc2ccccc2c1)C(=O)NC1CCNCC1 (stereo not shown) [M606],30 µM,5.0,10,–,–,–
DDD-(Arg-DIgl-Oic-Arg)2 [M226],–,–,–,35 µM,5.7,Inact
DDD-(Arg-DIgl-Oic-Arg-OMe)2 [M598],–,–,–,13 µM,–,10
DDD-(DArg-2Nal-Arg-NH2)2 [M510],–,–,–,8 µM,Inact,11
DDD-(DArg-Arg-Aud-Pac-2Nal-Arg)2 [M516],–,–,–,1.4 µM,0,Ag
DDD-(DArg-OC2Y-Arg)2 [M518],–,–,–,15 µM,–,10
DDD-(Eac-Arg-DIgl-Oic-Arg-OMe)2 [M608],–,–,–,13 µM,–,Inact
